Among the test systems are HCT-15; CCRF-CEM; NCI/ADR-RES; K562; HCC 2998; NCI-H23; UO-31; ACHN; DU-145; SK-OV-3; HOP-62; PC-3; COLO 205; MCF7; SW-620; OVCAR-8; SNB-75; T47D; SNB-19; NCI-H460.
What all share (assay): DTP human tumour cell line panel, 48 h

SMILES strings stand for the structures.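 Growth conditions: 96-well plates. Treatment: test compound, 48 hours, 5 concentrations. Analysis: linear interpolation between bracketing concentrations; unreached endpoints set to highest concentration. At the GI50, growth is halved.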 Activity calls are given as the source filed them. Cut-off read from the data, not from the text of the source: active = GI50 up to about 1.1 µM and inactive = higher. A value given as a limit tells only on which side of the number the result lay.

`CCCCCCCCCCCCCCCCCCNc1ccn(C2OC(COP(=O)(O)OCCCCCCCCCCCCCCCC)C(O)C2O)c(=O)n1` (stereo not given): the GI50 (commonly the concentration giving 50% growth inhibition) is > 100 µM in the assay with HCT-15; 77.8 µM (inactive) in the assay with CCRF-CEM; > 100 µM (inactive) in the assay with NCI/ADR-RES; > 100 µM (inactive) with K562; > 100 µM (inactive) in the assay with HCC 2998; > 100 µM (inactive) in the assay with NCI-H23. In addition, the GI50 in the assay with UO-31, with ACHN, in the assay with DU-145, in the assay with SK-OV-3, with HOP-62 and in the assay with PC-3 was > 100 µM (inactive) each time. In addition, the GI50 in the assay on COLO 205 was > 100 µM (inactive); in the assay with MCF7, > 100 µM (inactive); in the assay with SW-620 it was > 100 µM (inactive); in the assay with OVCAR-8, > 100 µM (inactive); in the assay with SNB-75, 74.1 µM (inactive); with T47D, > 100 µM (inactive). For the same compound, the GI50 in the assay with SNB-19 is > 100 µM (inactive).

Turning to `Cc1ccsc1/C=N/Nc1nncc2ccccc12`, the GI50 in the assay with HCT-15 was > 100 µM; in the assay with CCRF-CEM, 53.2 µM (inactive); with NCI/ADR-RES, > 100 µM (inactive); in the assay with K562, > 100 µM (inactive); in the assay on HCC 2998, > 100 µM (inactive); with NCI-H23 it was > 100 µM (inactive). For the same compound, the GI50 in the assay on UO-31 was 21.9 µM (inactive); in the assay with ACHN, > 100 µM (inactive); with DU-145, > 100 µM (inactive); with SK-OV-3, 70.6 µM (inactive); with HOP-62, > 100 µM (inactive); in the assay with PC-3 it was 34.3 µM (inactive). The GI50 was > 100 µM (inactive) with COLO 205; 37 µM (inactive) with MCF7; > 100 µM (inactive) in the assay on SW-620; > 100 µM (inactive) with OVCAR-8; > 100 µM (inactive) in the assay on SNB-75; > 100 µM (inactive) with T47D. Further, the GI50 in the assay on SNB-19 was > 100 µM (inactive).

For `CCN(CC)CCC(=O)c1ccc(Oc2ccc(Cl)cc2)cc1`, the concentration for 50% growth inhibition (GI50) with HCT-15 was 18.4 µM; with CCRF-CEM it was 19.5 µM (inactive); with NCI/ADR-RES, 22.3 µM (inactive); with K562 it was 31.8 µM (inactive); with HCC 2998 it was 18.8 µM (inactive); in the assay with NCI-H23 it was 17.2 µM (inactive). For the same compound, the GI50 is 18 µM (inactive) with UO-31; 12.9 µM (inactive) with ACHN; 21.6 µM (inactive) with DU-145; 11.8 µM (inactive) in the assay with HOP-62; 15.1 µM (inactive) with PC-3; 24.3 µM (inactive) in the assay with COLO 205. Also, the GI50 was 17.7 µM (inactive) in the assay with MCF7; 22 µM (inactive) in the assay on SW-620; 19.9 µM (inactive) in the assay on OVCAR-8; 14.7 µM (inactive) in the assay on NCI-H460; 12 µM (inactive) in the assay on SNB-75; 20.7 µM (inactive) in the assay on T47D. In addition, the GI50 with SNB-19 is 30 µM (inactive).

For the compound `CCCCCCCCCCCC[C@H](O)[C@H]1CC[C@H]([C@H](O)CCCC[C@H](O)CCCCC[C@@H](O)CC2=C[C@H](C)OC2=O)O1`, the GI50 is 5.56 µM in the assay with HCT-15; 1.71 µM (inactive) in the assay on CCRF-CEM; 1.61 µM (inactive) in the assay with NCI/ADR-RES; 1.23 µM (inactive) in the assay on K562; 17.4 µM (inactive) with HCC 2998; 0.00415 µM (active) in the assay with NCI-H23. Moreover, the GI50 in the assay with UO-31 is 1.5 µM (inactive); with ACHN, 1.08 µM (active); in the assay on DU-145, 9.42 µM (inactive); in the assay on HOP-62 it was 6.3 µM (inactive); with PC-3, 3.1 µM (inactive); in the assay on COLO 205, 4.21 µM (inactive). Moreover, the GI50 is 1.4 µM (inactive) in the assay with MCF7; 2.75 µM (inactive) in the assay with SW-620; 2.26 µM (inactive) in the assay on OVCAR-8; 3.04 µM (inactive) in the assay with NCI-H460; 4.99 µM (inactive) in the assay on SNB-75; 4.14 µM (inactive) in the assay with T47D. Further, the GI50 with SNB-19 was 1.13 µM (inactive).

Turning to `C=C1C(=O)OC2C1C(OC(=O)/C(C)=C/C)CC(O)(CCl)C1C(O)C3OC3(C)C21O` (stereo not given), the GI50 in the assay on HCT-15 was 17.1 µM; in the assay with CCRF-CEM, 12.4 µM (inactive); in the assay on NCI/ADR-RES it was > 50 µM (inactive); with K562, 18 µM (inactive); in the assay on HCC 2998 it was > 50 µM (inactive); with NCI-H23, 34.5 µM (inactive). Moreover, the GI50 in the assay on ACHN is 19.9 µM (inactive); in the assay on DU-145 it was > 50 µM (inactive); in the assay on SK-OV-3, > 50 µM (inactive); in the assay on HOP-62 it was > 50 µM (inactive); with PC-3, > 50 µM (inactive); with COLO 205, 13.3 µM (inactive). Besides, the GI50 with MCF7 was 18.2 µM (inactive); in the assay on SW-620, 13.4 µM (inactive); in the assay with OVCAR-8, 13.2 µM (inactive); with NCI-H460, > 50 µM (inactive); with SNB-75 it was > 50 µM (inactive); in the assay with T47D it was 23.8 µM (inactive). The GI50 in the assay with SNB-19 is > 50 µM (inactive).

As to `CCn1cc(C(=O)O)c(=O)c2cc(F)c(N3CCN(CN4C(=O)/C(=N\NC(=O)c5ccncc5)c5cc(Cl)ccc54)CC3)cc21`, the GI50 is 31.1 µM in the assay on HCT-15; 79.6 µM (inactive) in the assay on NCI/ADR-RES; 18.7 µM (inactive) with K562; 36 µM (inactive) with HCC 2998; 59.4 µM (inactive) in the assay on NCI-H23; 4.83 µM (inactive) in the assay with UO-31. The GI50 is 37.3 µM (inactive) in the assay on ACHN; 24 µM (inactive) with DU-145; 24.9 µM (inactive) in the assay with SK-OV-3; 22.9 µM (inactive) in the assay on HOP-62; 38.5 µM (inactive) with PC-3; 52.7 µM (inactive) with COLO 205. The GI50 in the assay on MCF7 was 28.2 µM (inactive); in the assay on SW-620 it was 23.4 µM (inactive); in the assay with OVCAR-8, 28.5 µM (inactive); with NCI-H460, 52.4 µM (inactive); with SNB-75 it was 25.5 µM (inactive); with T47D, 29.4 µM (inactive). In the assay on SNB-19, the GI50 is 44.3 µM (inactive).

Take `Cc1c[nH]c2c(O)cc3c(c12)[C@H](CCl)CN3C(=O)c1cc2cc(NC(=O)Nc3ccc4[nH]c(C(=O)N5C[C@@H](CCl)c6c5cc(O)c5[nH]cc(C)c65)cc4c3)ccc2[nH]1` [BIZELESIN]: the GI50 is 0.274 µM (active) in the assay on CCRF-CEM; 0.071 µM (active) in the assay with NCI/ADR-RES; 23.9 µM (inactive) in the assay with K562; 0.00109 µM (active) in the assay on HCC 2998; 1.9 µM (inactive) in the assay with NCI-H23; < 0.001 µM (active) with UO-31. In addition, the GI50 is 0.139 µM (active) with ACHN; 3.65 µM (inactive) in the assay with DU-145; 0.141 µM (active) in the assay with SK-OV-3; 1.05 µM (active) in the assay with HOP-62; 33.9 µM (inactive) in the assay on PC-3; 8.91 µM (inactive) in the assay with COLO 205. Further, the GI50 with MCF7 is 0.578 µM (active); with SW-620, 17.4 µM (inactive); with OVCAR-8 it was 2.62 µM (inactive); in the assay with NCI-H460, < 0.001 µM (active); in the assay on SNB-75 it was 1.09 µM (active); in the assay with T47D, < 0.001 µM (active). The GI50 in the assay with SNB-19 was 28.5 µM (inactive).

`NC(=O)/C=C/NC(=O)/C=N\O`: the GI50 in the assay on HCT-15 was > 100 µM; in the assay with CCRF-CEM, > 100 µM (inactive); in the assay on NCI/ADR-RES, > 100 µM (inactive); with K562, > 100 µM (inactive); with HCC 2998, > 100 µM (inactive); in the assay on UO-31, > 100 µM (inactive). Besides, the GI50 with ACHN, with DU-145, in the assay on SK-OV-3, in the assay on HOP-62, in the assay on PC-3 and in the assay on COLO 205 was > 100 µM (inactive) throughout. Besides, the GI50 in the assay with MCF7, with SW-620, in the assay on OVCAR-8, in the assay on NCI-H460, in the assay with SNB-75 and with T47D was > 100 µM (inactive) in each case. For the same compound, the GI50 in the assay with SNB-19 was > 100 µM (inactive).

Take `CC1(C)CCC2(C(=O)OC3OC(CO)C(O)C(O)C3O)CCC3(CO)C(=CCC4C5(C)CC(O)C(O)C(C)(C(=O)OC6OC(CO)C(O)C(O)C6O)C5CCC43C)C2C1` (stereo not given): the GI50 with HCT-15 was > 100 µM; in the assay with NCI/ADR-RES, > 100 µM (inactive); in the assay on K562 it was > 100 µM (inactive); in the assay with HCC 2998, > 100 µM (inactive); in the assay on NCI-H23, > 100 µM (inactive); with UO-31 it was > 100 µM (inactive). Moreover, the GI50 in the assay with ACHN, with DU-145, with SK-OV-3, in the assay with HOP-62, in the assay on PC-3 and with COLO 205 was > 100 µM (inactive) in each case. Further, the GI50 with MCF7, with SW-620, with OVCAR-8, in the assay on NCI-H460, in the assay with SNB-75 and in the assay with T47D was > 100 µM (inactive) each time. Also, the GI50 in the assay on SNB-19 was > 100 µM (inactive).

Regarding `COC(=O)[C@]1(C)CCC[C@]2(C)[C@@H](CCC(=O)C(C)C)[C@]3(C=O)O[C@@H]3C[C@H]21`, the GI50 was 26.6 µM with HCT-15; 32.2 µM (inactive) in the assay on CCRF-CEM; 25.7 µM (inactive) in the assay with NCI/ADR-RES; 27.9 µM (inactive) in the assay on K562; 58.6 µM (inactive) in the assay with HCC 2998; 28.1 µM (inactive) in the assay with NCI-H23. Moreover, the GI50 in the assay on UO-31 is 18.7 µM (inactive); in the assay on ACHN it was 27 µM (inactive); in the assay with DU-145, 39.4 µM (inactive); in the assay on SK-OV-3 it was 35.6 µM (inactive); with PC-3, 28.4 µM (inactive); in the assay with COLO 205, 35 µM (inactive). For the same compound, the GI50 is 33.4 µM (inactive) in the assay with MCF7; 47.6 µM (inactive) in the assay with SW-620; 39.4 µM (inactive) in the assay on OVCAR-8; > 100 µM (inactive) in the assay on NCI-H460; 17.1 µM (inactive) in the assay with SNB-75; 21.8 µM (inactive) with T47D. The GI50 in the assay on SNB-19 was 37.2 µM (inactive).

Source of the values: ChEMBL document CHEMBL1201862, “PubChem BioAssay data set” (2004).
